How the values were obtained:
HIV-1 [1] = conditions: SCID-hu mice; Datema et al., 1996; cited from earlier work
HIV-1 [2] = conditions: certain cultured cells; Cocchi et al., 1995; cited from earlier work
[3] = tested on: fusion mediated by CD4, CXCR4, and the HIV-1 Env protein gp143; assay: CHO cell/Jurkat cell fusion assay, β-lactamase/CCF2 FRET readout; format: cell-based; conditions: CHO gp143/HXB2 cells with Jurkat β-lactamase cells
Method: Jurkat cells expressing β-lactamase (and which naturally express CXCR4 and CD4) were added to the CHO cells and incubated at 37° C. for a period sufficient to allow fusion to occur. The non-fused cells were removed by washing and the fluorogenic 1β-lactamase substrate CCF2/AM was added to the remaining cells. After a 1 hour incubation at room temperature, cell fusion was measured by fluorescence on a fluorescence plate reader. The ratio of emission of the donor dye (7-hydroxycoumarin) over emission of the acceptor dye (fluorescein) was measured.
Fusion is measured by observing the ratio of blue emission (460 nm) to green emission (530 nm). A high ratio indicates more fusion; a low ratio indicates less fusion.
CHO cells expressing gp143/HXB2 were plated in 96-well black, clear-bottom plates (Costar catalogue number 3603) at 5×10^4 cells per well in 200 μl of medium per well. The medium was Iscove's Modified Dulbecco's Medium (Gibco catalogue number 12440-046) supplemented with: 10% fetal bovine serum, G418 (1 mg/ml), 1 mg/ml penicillin/streptomycin (Gibco catalogue number 15140-122), glutamine (2 mM), and HT (ATCC 71-X).
The cells were incubated overnight at 37° C. […]
The plates were read on a Cytofluor II fluorescence plate reader (PerSeptive Biosystems) at 2 scans/cycle. […]

In the case of c1cc(CN2CCCNCCNCCCNCC2)ccc1CN1CCCNCCNCCCNCC1 [AMD3100], the “inhibition of HIV-1 replication” value (HIV-1 [1]) is given as “inhibits HIV-1 replication”.

For RANTES, the “suppression of HIV-1 replication” value (HIV-1 [2]) is listed as “able to suppress HIV-1 replication”.

With “SDF-1: the natural ligand for CXCR4 (PeproTech Inc.); a chemokine” the “inhibition of fusion (in words)” value [3] was “dose-dependent inhibition of fusion”.

From patent US7029868B2, “Cell fusion assays using fluorescence resonance energy transfer” (Merck & Co., Inc., priority 2000, dated 2006)
